For three molecules, inhibition and fold change results are on record in PubChem BioAssay AID588666 (The Scripps Research Institute Molecular Screening Center, 2011).

Active and inactive are the calls of the source.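 The calls were made as follows: active = MAPK1 protein level shifted by at least 30% from DMSO-treated cells, either down or up; inactive = shift under 30% either way.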

The target in this test is Mitogen-activated protein kinase 1 (Homo sapiens) (UniProt P28482). Briefly: reduction of total ERK1/2 protein levels, late-stage follow-up, counter-screen for KLF5 inhibitor project, SW620 cells, chemiluminescent western blot, powder samples (AID 588666). The settings on record: ERK1/2 western blot, 24 h, at 10 µM; for inhibition: stronger effect = higher value; for fold change: measured here: ERK1/2 protein fold change vs DMSO, stronger effect = lower value.
Sequence of Mitogen-activated protein kinase 1 (Homo sapiens) (P28482 whole entry, looked up): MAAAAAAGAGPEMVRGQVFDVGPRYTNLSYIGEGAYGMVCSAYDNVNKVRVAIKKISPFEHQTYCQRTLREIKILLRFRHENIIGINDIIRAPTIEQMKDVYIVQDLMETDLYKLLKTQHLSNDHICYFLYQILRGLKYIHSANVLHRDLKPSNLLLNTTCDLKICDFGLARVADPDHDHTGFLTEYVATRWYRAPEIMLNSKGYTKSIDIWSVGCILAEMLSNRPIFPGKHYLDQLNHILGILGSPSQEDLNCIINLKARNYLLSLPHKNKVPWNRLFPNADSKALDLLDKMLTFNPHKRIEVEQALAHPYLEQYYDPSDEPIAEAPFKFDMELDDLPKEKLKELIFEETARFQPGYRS

As for `CN(C(=O)CNC(=O)/C=C/c1cccc(Cl)c1)C1CCS(=O)(=O)CC1`, the inhibition (usually the change of the read-out against control, counted positive when it falls) is -9.9% (inactive) and the fold change came to 1.1.

For the molecule `CN(C(=O)CNC(=O)/C=C/c1cccc(Cl)c1)C1CCS(=O)(=O)C1` (stereo unspecified), the inhibition is 26.9% (inactive) and the fold change was -1.37.

For `CN(C(=O)COC(=O)/C=C/c1cccc([N+](=O)[O-])c1)C1CCS(=O)(=O)C1` (stereo unspecified), the inhibition was 14.8% (inactive) and the fold change is -1.17.
